Results reported in ChEMBL document CHEMBL1145626, “Novel echinocandin antifungals. Part 2: Optimization of the side chain of the natural product FR901379. Discovery of micafungin” (Bioorg Med Chem Lett, 2008).
*1 amine or outer side, *2 acyl side, *3 side chain or, on linkers, in order; H or OH if unused. Where a SMILES comes first, the peptide text is derived from it. Bridges are numbered along the chain shown (N, C = ends). [ ]: non-standard residue; d: D form. The star is where a group is joined. ξ: configuration not given here. hTyr(3S-OH,4S-OH,3'-OSO3H) = N[C@H](C(=O)O)[C@H](O)[C@@H](O)c1ccc(O)c(OS(=O)(=O)O)c1; Orn(4R-OH,5R-OH) = O=C([C@H](C[C@@H](O)[C@@H](O)N[*:3])N[*:1])[*:2]; Orn(4R-OH,5S-OH) = O=C([C@H](C[C@@H](O)[C@H](O)N[*:3])N[*:1])[*:2]; X4 = CCCCCCOc1ccc(-c2nnc(-c3ccc(C(=O)*)cc3)s2)cc1; X6 = CCCCCCCOc1ccc(N2CCN(c3ccc(C(=O)*)cn3)CC2)cc1; Pro(3S-OH,4S-Me) = C[C@H]1CN[C@H](C(=O)O)[C@H]1O; X1 = CCCCCCOc1ccc(N2CCN(c3ccc(C(=O)*)cc3)CC2)cc1; X2 = CCCCCOc1ccc(-c2cc(-c3ccc(C(=O)*)cc3)no2)cc1; X3 = CCCCOc1ccc(-c2ccc(-c3ccc(C(=O)*)cc3)cc2)cc1; X5 = CCCCCOc1ccc(-c2cc(-c3ccc(C(=O)*)cc3)on2)cc1; X7 = CCCCCCOc1ccc(C2CCN(c3ccc(C(=O)*)cc3)CC2)cc1; X8 = CCCCCOc1ccc(-c2nc(-c3ccc(C(=O)*)cc3)cs2)cc1; Benzoyl(4-octyloxy) = CCCCCCCCOc1ccc(C(=O)*)cc1; Gln(3R-OH) = NC(=O)C[C@@H](O)[C@H](N)C(=O)O; Hyp = O=C(O)[C@@H]1C[C@@H](O)CN1; ξThr(3R) = C[C@@H](O)C(N)C(=O)O

Tests used:
[1] = Hemolytic activity in human erythrocytes at 1 mg/ml; assay type: ADME, cell-based, Erythrocyte; conditions: read-out: Activity
[2] = test system: Candida albicans; assay: Antifungal activity against Candida albicans FP633 in mouse serum; assay type: functional
[3] = test system: Aspergillus fumigatus; assay: Antifungal activity against Aspergillus fumigatus FP1305 in RPMI media; assay type: functional
[4] = test system: Candida albicans; assay: Antifungal activity against Candida albicans FP633 in RPMI media; assay type: functional
[5] = test system: Aspergillus fumigatus; assay: Antifungal activity against Aspergillus fumigatus FP1305 in mouse serum; assay type: functional
[6] = test system: Candida albicans; assay: Antifungal activity against Candida albicans FP633 infected in mouse; assay type: functional
[7] = AUC (0 to infinity) in mouse at 5 mg/kg, iv after 30 mins; assay type: ADME, organism-based; parameters: time infinity, dose 5 mg/kg, route intravenous; conditions: plasma
[8] = Half life in mouse at 5 mg/kg, iv after 30 mins; assay type: ADME, organism-based; parameters: dose 5 mg/kg, route intravenous; conditions: in vivo
[9] = Concentration in mouse plasma at 5 mg/kg, iv after 30 mins; assay type: ADME, organism-based; parameters: dose 5 mg/kg, route intravenous
[10] = test system: Aspergillus fumigatus; assay: Antifungal activity against Aspergillus fumigatus FP1305 infected in mouse

Compound | hemolysis at 1 mg/ml [1] | MIC [2] | IC50 [3] | MIC [4] | MIC [5] | ED50 [6] | AUC(0-inf) [7] | half-life [8] | concentration at 0.5 h [9] | ED50 [10]
CCCCCCOc1ccc(C2CCN(c3ccc(C(=O)N[C@H]4C[C@@H](O)[C@@H](O)NC(=O)[C@@H]5[C@@H](O)[C@@H](C)CN5C(=O)[C@H]([C@H](O)CC(N)=O)NC(=O)[C@H]([C@H](O)[C@@H](O)c5ccc(O)c(OS(=O)(=O)[O-])c5)NC(=O)[C@@H]5C[C@@H](O)CN5C(=O)C([C@@H](C)O)NC4=O)cc3)CC2)cc1.[Na+] (stereo partly drawn) (X7-[Orn(4R-OH,5R-OH)][ξThr(3R)][Hyp][hTyr(3S-OH,4S-OH,3'-OSO3H)][Gln(3R-OH)][Pro(3S-OH,4S-Me)]; lactam 1-C) | 33% | 1.56 µg/mL | 3 ng/mL | 0.05 µg/mL | 1.56 µg/mL |  |  |  |  | 
CCCCCOc1ccc(-c2nc(-c3ccc(C(=O)N[C@H]4C[C@@H](O)[C@@H](O)NC(=O)[C@@H]5[C@@H](O)[C@@H](C)CN5C(=O)[C@H]([C@H](O)CC(N)=O)NC(=O)[C@H]([C@H](O)[C@@H](O)c5ccc(O)c(OS(=O)(=O)[O-])c5)NC(=O)[C@@H]5C[C@@H](O)CN5C(=O)C([C@@H](C)O)NC4=O)cc3)cs2)cc1.[Na+] (stereo partly drawn) (X8-[Orn(4R-OH,5R-OH)][ξThr(3R)][Hyp][hTyr(3S-OH,4S-OH,3'-OSO3H)][Gln(3R-OH)][Pro(3S-OH,4S-Me)]; lactam 1-C) | < 20% | 6.25 µg/mL |  | 0.1 µg/mL | 3.13 µg/mL |  |  |  |  | 
CCCCCCOc1ccc(-c2nnc(-c3ccc(C(=O)N[C@H]4C[C@@H](O)[C@@H](O)NC(=O)[C@@H]5[C@@H](O)[C@@H](C)CN5C(=O)[C@H]([C@H](O)CC(N)=O)NC(=O)[C@H]([C@H](O)[C@@H](O)c5ccc(O)c(OS(=O)(=O)[O-])c5)NC(=O)[C@@H]5C[C@@H](O)CN5C(=O)C([C@@H](C)O)NC4=O)cc3)s2)cc1.[Na+] (stereo partly drawn) (X4-[Orn(4R-OH,5R-OH)][ξThr(3R)][Hyp][hTyr(3S-OH,4S-OH,3'-OSO3H)][Gln(3R-OH)][Pro(3S-OH,4S-Me)]; lactam 1-C) | 42% | 0.78 µg/mL | 2 ng/mL | 0.05 µg/mL | 0.78 µg/mL |  |  |  |  | 
CCCCOc1ccc(-c2ccc(-c3ccc(C(=O)N[C@H]4C[C@@H](O)[C@@H](O)NC(=O)[C@@H]5[C@@H](O)[C@@H](C)CN5C(=O)[C@H]([C@H](O)CC(N)=O)NC(=O)[C@H]([C@H](O)[C@@H](O)c5ccc(O)c(OS(=O)(=O)[O-])c5)NC(=O)[C@@H]5C[C@@H](O)CN5C(=O)[C@H]([C@@H](C)O)NC4=O)cc3)cc2)cc1.[Na+] (X3-[Orn(4R-OH,5R-OH)]T[Hyp][hTyr(3S-OH,4S-OH,3'-OSO3H)][Gln(3R-OH)][Pro(3S-OH,4S-Me)]; lactam 1-C) | 79% | 1.56 µg/mL | 2 ng/mL | 0.025 µg/mL | 1.56 µg/mL | 0.447 mg/kg |  |  |  | 
CCCCCOc1ccc(-c2cc(-c3ccc(C(=O)N[C@H]4C[C@@H](O)[C@@H](O)NC(=O)[C@@H]5[C@@H](O)[C@@H](C)CN5C(=O)[C@H]([C@H](O)CC(N)=O)NC(=O)[C@H]([C@H](O)[C@@H](O)c5ccc(O)c(OS(=O)(=O)O)c5)NC(=O)[C@@H]5C[C@@H](O)CN5C(=O)[C@H]([C@@H](C)O)NC4=O)cc3)no2)cc1 (X2-[Orn(4R-OH,5R-OH)]T[Hyp][hTyr(3S-OH,4S-OH,3'-OSO3H)][Gln(3R-OH)][Pro(3S-OH,4S-Me)]; lactam 1-C) | < 20% |  |  |  |  |  |  |  |  | 
CCCCCOc1ccc(-c2cc(-c3ccc(C(=O)N[C@H]4C[C@@H](O)[C@@H](O)NC(=O)[C@@H]5[C@@H](O)[C@@H](C)CN5C(=O)[C@H]([C@H](O)CC(N)=O)NC(=O)[C@H]([C@H](O)[C@@H](O)c5ccc(O)c(OS(=O)(=O)[O-])c5)NC(=O)[C@@H]5C[C@@H](O)CN5C(=O)C([C@@H](C)O)NC4=O)cc3)on2)cc1.[Na+] (stereo partly drawn) (X5-[Orn(4R-OH,5R-OH)][ξThr(3R)][Hyp][hTyr(3S-OH,4S-OH,3'-OSO3H)][Gln(3R-OH)][Pro(3S-OH,4S-Me)]; lactam 1-C) | 38% | 1.56 µg/mL | 1 ng/mL | 0.05 µg/mL | 0.78 µg/mL |  |  |  |  | 
CCCCCCCCOc1ccc(C(=O)N[C@H]2C[C@@H](O)[C@H](O)NC(=O)[C@@H]3[C@@H](O)[C@@H](C)CN3C(=O)[C@H]([C@H](O)CC(N)=O)NC(=O)[C@H]([C@H](O)[C@@H](O)c3ccc(O)c(OS(=O)(=O)[O-])c3)NC(=O)[C@@H]3C[C@@H](O)CN3C(=O)[C@H]([C@@H](C)O)NC2=O)cc1.[Na+] [FR-131535] ({Benzoyl(4-octyloxy)}-[Orn(4R-OH,5S-OH)]T[Hyp][hTyr(3S-OH,4S-OH,3'-OSO3H)][Gln(3R-OH)][Pro(3S-OH,4S-Me)]; lactam 1-C) |  | 25 µg/mL |  |  | 12.5 µg/mL |  | 109 µg·h/mL | 120 min | 30300 ng/mL | 
CCCCCCOc1ccc(N2CCN(c3ccc(C(=O)N[C@H]4C[C@@H](O)[C@@H](O)NC(=O)[C@@H]5[C@@H](O)[C@@H](C)CN5C(=O)[C@H]([C@H](O)CC(N)=O)NC(=O)[C@H]([C@H](O)[C@@H](O)c5ccc(O)c(OS(=O)(=O)[O-])c5)NC(=O)[C@@H]5C[C@@H](O)CN5C(=O)C([C@@H](C)O)NC4=O)cc3)CC2)cc1.[Na+] (stereo partly drawn) (X1-[Orn(4R-OH,5R-OH)][ξThr(3R)][Hyp][hTyr(3S-OH,4S-OH,3'-OSO3H)][Gln(3R-OH)][Pro(3S-OH,4S-Me)]; lactam 1-C) | < 20% | 3.13 µg/mL | 2 ng/mL | 0.1 µg/mL | 1.56 µg/mL | 0.395 mg/kg | 105 µg·h/mL | 210 min | 18800 ng/mL | 0.531 mg/kg
CCCCCOc1ccc(-c2cc(-c3ccc(C(=O)N[C@H]4C[C@@H](O)[C@@H](O)NC(=O)[C@@H]5[C@@H](O)[C@@H](C)CN5C(=O)[C@H]([C@H](O)CC(N)=O)NC(=O)[C@H]([C@H](O)[C@@H](O)c5ccc(O)c(OS(=O)(=O)[O-])c5)NC(=O)[C@@H]5C[C@@H](O)CN5C(=O)C([C@@H](C)O)NC4=O)cc3)no2)cc1.[Na+] (stereo partly drawn) (X2-[Orn(4R-OH,5R-OH)][ξThr(3R)][Hyp][hTyr(3S-OH,4S-OH,3'-OSO3H)][Gln(3R-OH)][Pro(3S-OH,4S-Me)]; lactam 1-C) |  | 1.56 µg/mL | 2 ng/mL | 0.05 µg/mL | 1.56 µg/mL | 0.325 mg/kg | 78 µg·h/mL | 306 min | 10100 ng/mL | 0.228 mg/kg
CCCCCCCOc1ccc(N2CCN(c3ccc(C(=O)N[C@H]4C[C@@H](O)[C@@H](O)NC(=O)[C@@H]5[C@@H](O)[C@@H](C)CN5C(=O)[C@H]([C@H](O)CC(N)=O)NC(=O)[C@H]([C@H](O)[C@@H](O)c5ccc(O)c(OS(=O)(=O)[O-])c5)NC(=O)[C@@H]5C[C@@H](O)CN5C(=O)C([C@@H](C)O)NC4=O)cn3)CC2)cc1.[Na+] (stereo partly drawn) (X6-[Orn(4R-OH,5R-OH)][ξThr(3R)][Hyp][hTyr(3S-OH,4S-OH,3'-OSO3H)][Gln(3R-OH)][Pro(3S-OH,4S-Me)]; lactam 1-C) | < 20% | 3.13 µg/mL | 5 ng/mL | 0.2 µg/mL | 6.25 µg/mL |  |  |  |  | 
